Experimental data as given in publication PMC9516332 (Frontiers in Oncology, 2022).
Where two headings read alike, the source gives them in different places.

Tests used:
[1] = molecular target: panel of 255 wild-type kinases (Homo sapiens, UniProt P06241); assay: Kinase panel profiling at 1 µmol/L (MSA or IMAP), percentage inhibition; type: biochemical; conditions: kinase FYN [isoform a]; 1 µmol/L single concentration; read-out: %-inhibition at 1 µmol/L, FYN [isoform a]
[2] = molecular target: panel of 255 wild-type kinases (Homo sapiens, UniProt P48729); assay: as above; type: biochemical; conditions: kinase CK1α; 1 µmol/L single concentration; read-out: %-inhibition at 1 µmol/L, CK1α
[3] = molecular target: panel of 255 wild-type kinases (Homo sapiens, UniProt Q13882); assay: as above; type: biochemical; conditions: BRK kinase assay; 1 µmol/L single concentration; read-out: %-inhibition BRK
[4] = molecular target: panel of 255 wild-type kinases (Homo sapiens, UniProt Q16816); assay: as above; type: biochemical; conditions: kinase PHKG1; 1 µmol/L single concentration; read-out: %-inhibition at 1 µmol/L, PHKG1
[5] = molecular target: panel of 255 wild-type kinases (Homo sapiens, UniProt Q9H422); assay: as above; type: biochemical; conditions: kinase HIPK3; 1 µmol/L single concentration; read-out: %-inhibition at 1 µmol/L, HIPK3
[6] = test system: AP-1060 (ETV6-NTRK3); assay: Cell viability assay; conditions: read-out: IC50 in cell proliferation assay
[7] = test system: 134 cancer cell lines; assay: Cell viability assay (ATPlite, 72 hours), IC50 on cancer cell line panel

C[C@H]1Oc2cc(cnc2N)-c2c(nn(C)c2C#N)CN(C)C(=O)c2ccc(F)cc21 [lorlatinib]
inhibition at 1 µM [1]: 15% | inhibition at 1 µM [2]: -12% | inhibition at 1 µM [3]: 63% | inhibition at 1 µM [4]: 65% | inhibition at 1 µM [5]: 0.506% | IC50 [6]: 10.7 µM | IC50 ([7]; HEC-6, read-out: IC50 in cell proliferation assay): > 31.6 µM | IC50 ([7]; Homo sapiens, 769-P, read-out: IC50 in cell proliferation assay): > 31.6 µM | IC50 ([7]; Homo sapiens, 786-0, read-out: IC50 in cell proliferation assay): > 31.6 µM | IC50 ([7]; Homo sapiens, A 172, read-out: IC50 in cell proliferation assay): > 31.6 µM | IC50 ([7]; Homo sapiens, A204, read-out: IC50 in cell proliferation assay): > 31.6 µM | IC50 ([7]; Homo sapiens, A498, read-out: IC50 in cell proliferation assay): > 31.6 µM | IC50 ([7]; Homo sapiens, A549, read-out: IC50 in cell proliferation assay): 2.3 µM | IC50 ([7]; Homo sapiens, A704, read-out: IC50 in cell proliferation assay): > 31.6 µM | IC50 ([7]; Homo sapiens, A-375, read-out: IC50 in cell proliferation assay): 18.8 µM | IC50 ([7]; Homo sapiens, A-427, read-out: IC50 in cell proliferation assay): 27.4 µM | IC50 ([7]; Homo sapiens, ACHN, read-out: IC50 in cell proliferation assay): > 31.6 µM | IC50 ([7]; Homo sapiens, AN3-CA, read-out: IC50 in cell proliferation assay): > 31.6 µM | IC50 ([7]; Homo sapiens, ASPC1, read-out: IC50 in cell proliferation assay): 28.2 µM | IC50 ([7]; Homo sapiens, AU565, read-out: IC50 in cell proliferation assay): > 31.6 µM | IC50 ([7]; Homo sapiens, BT-20, read-out: IC50 in cell proliferation assay): > 31.6 µM | IC50 ([7]; Homo sapiens, BT-474, read-out: IC50 in cell proliferation assay): > 31.6 µM | IC50 ([7]; Homo sapiens, BT-549, read-out: IC50 in cell proliferation assay): > 31.6 µM | IC50 ([7]; Homo sapiens, BXPC-3, read-out: IC50 in cell proliferation assay): 0.049 µM | IC50 ([7]; Homo sapiens, C-33-A, read-out: IC50 in cell proliferation assay): > 31.6 µM | IC50 ([7]; Homo sapiens, CAL-27, read-out: IC50 in cell proliferation assay): > 31.6 µM | IC50 ([7]; Homo sapiens, CCF-STTG1, read-out: IC50 in cell proliferation assay): > 31.6 µM | IC50 ([7]; Homo sapiens, CCRF-CEM, read-out: IC50 in cell proliferation assay): > 31.6 µM | IC50 ([7]; Homo sapiens, COLO 205, read-out: IC50 in cell proliferation assay): 11.9 µM | IC50 ([7]; Homo sapiens, COLO-829, read-out: IC50 in cell proliferation assay): > 31.6 µM | IC50 ([7]; Homo sapiens, DLD-1, read-out: IC50 in cell proliferation assay): > 31.6 µM | IC50 ([7]; Homo sapiens, DU-145, read-out: IC50 in cell proliferation assay): 25.9 µM | IC50 ([7]; Homo sapiens, DU-4475, read-out: IC50 in cell proliferation assay): 25.9 µM | IC50 ([7]; Homo sapiens, Daoy, read-out: IC50 in cell proliferation assay): > 31.6 µM | IC50 ([7]; Homo sapiens, DoTc2-4510, read-out: IC50 in cell proliferation assay): 0.024 µM | IC50 ([7]; Homo sapiens, EOL1, read-out: IC50 in cell proliferation assay): 9.05 µM | IC50 ([7]; Homo sapiens, FaDu, read-out: IC50 in cell proliferation assay): > 31.6 µM | IC50 ([7]; Homo sapiens, G-361, read-out: IC50 in cell proliferation assay): > 31.6 µM | IC50 ([7]; Homo sapiens, HCC827, read-out: IC50 in cell proliferation assay): 17.1 µM | IC50 ([7]; Homo sapiens, HCC4006, read-out: IC50 in cell proliferation assay): 17.8 µM | IC50 ([7]; Homo sapiens, HCT-15, read-out: IC50 in cell proliferation assay): > 31.6 µM | IC50 ([7]; Homo sapiens, HCT-116, read-out: IC50 in cell proliferation assay): 23.8 µM | IC50 ([7]; Homo sapiens, HEC-1, read-out: IC50 in cell proliferation assay): 9.24 µM | IC50 ([7]; Homo sapiens, HEC-1B, read-out: IC50 in cell proliferation assay): > 31.6 µM | IC50 ([7]; Homo sapiens, HL-60, read-out: IC50 in cell proliferation assay): 28.1 µM | IC50 ([7]; Homo sapiens, HT, read-out: IC50 in cell proliferation assay): > 31.6 µM | IC50 ([7]; Homo sapiens, HT-1080, read-out: IC50 in cell proliferation assay): > 31.6 µM | IC50 ([7]; Homo sapiens, Hs746T, read-out: IC50 in cell proliferation assay): 9.43 µM | IC50 ([7]; Homo sapiens, Hs-578T, read-out: IC50 in cell proliferation assay): > 31.6 µM | IC50 ([7]; Homo sapiens, HuTu80, read-out: IC50 in cell proliferation assay): 7.5 µM | IC50 ([7]; Homo sapiens, J82, read-out: IC50 in cell proliferation assay): > 31.6 µM | IC50 ([7]; Homo sapiens, Jurkat E6.1, read-out: IC50 in cell proliferation assay): > 31.6 µM | IC50 ([7]; Homo sapiens, K562, read-out: IC50 in cell proliferation assay): 9.61 µM | IC50 ([7]; Homo sapiens, KATO III, read-out: IC50 in cell proliferation assay): > 31.6 µM | IC50 ([7]; Homo sapiens, KG-1, read-out: IC50 in cell proliferation assay): 9.21 µM | IC50 ([7]; Homo sapiens, KLE, read-out: IC50 in cell proliferation assay): > 31.6 µM | IC50 ([7]; Homo sapiens, KMS-11, read-out: IC50 in cell proliferation assay): 17.7 µM | IC50 ([7]; Homo sapiens, KU812, read-out: IC50 in cell proliferation assay): > 31.6 µM | IC50 ([7]; Homo sapiens, Kasumi 1, read-out: IC50 in cell proliferation assay): > 31.6 µM | IC50 ([7]; Homo sapiens, LC-2-ad, read-out: IC50 in cell proliferation assay): 20.4 µM
